Data on two substances can be found in patent US20260014278A1, “HYBRID PEPTIDE DENDRIMER SYSTEMS AND EXTRAHEPATIC DELIVERY” (NUNTIUS THERAPEUTICS LIMITED, priority 2022, published 2026).

One data set concerns mouse macrophages. Briefly: eGFP mRNA transfection of mouse macrophages with or without mannose-dendrimer coat. The class given is cell-based. The note with it: GSCG1,2-RHL nanoparticle NP=8:1, DOTMA/DOPE:mRNA w/w 10:1, coat 1:1 (1 eq) coating:mRNA; FIG. 6. On the procedure: J774.2 cells were subcultured in DMEM supplemented with 2 mM glutamax and 10% heat-inactivated FBS (complete media). Twice a week (at about 70-80% confluency; every 3-4 days), cells were scrapped and collected into Falcon tubes, and pelleted at 400 g for 5 minutes. The cells were resuspended in complete media, counted and seeded into 10 cm dishes at a density of 1.7-2.5E+4 cells/cm^2. For M2 polarisation, the cells were treated with complete media supplemented with 20 ng/ml recombinant murine IL-4 and 20 ng/ml recombinant murine IL-13 (activation media) over a 48 hr period. After 24 hrs in IL-4 and IL-13 containing medium, the cells scrapped and collected as described above. The cells were seeded into 24-well plates at a density of 1.2E+5 cells/well in 0.5mls/well complete media containing 20 ng/ml IL-4 and IL-13.
The media overlaying the polarised J774.2 cells was aspirated and exchanged with 480 ul/well activation media. 120 ul/well of each test condition (total volume was 600 ul/well) was added (test conditions were prepared in 25 mM HEPES solution). Control conditions were prepared consisting of neat 25 mM HEPES and an mRNA control. Between addition of each test condition the plate was shaken back and forth to ensure mixing. The plate was placed into the incubator overnight.
Staining and fixation for both human and mouse-derived macrophages was carried out as follows. After 24 hrs the media overlaying each test condition was transferred to corresponding 1.5 ml Eppendorf tubes (in order to conserve cells that may have died during transfection). Cells were then washed with 300 ul/well PBS which was transferred to the corresponding tubes. 500 ul/well 5 mM EDTA was added to each well and the plate(s) transferred to the 37° C. incubator for 5-10 minutes until the cells started to detach. Cells were then transferred from the plate to the corresponding 1.5 ml tubes. Cells were pelleted down at 300 g for 5 minutes and resuspended in 100 ul/sample fixable Live/Dead Aqua stain. ArC beads were stained with 3 ul neat Live/Dead Aqua for compensation. These cells were stained on ice for 30 minutes. Following this, the tubes were spun down at 300 g for 5 minutes. The supernatant was discarded, and the cells were resuspended in 500 ul/sample PBS. Negative ArC beads were added to the compensation control. GFP compensation beads were dispensed into separate tube as the GFP compensation control. The samples were spun down at 300 g for 5 minutes. Samples were then resuspended in 100 ul/sample of Reagent A from the Invitrogen Fix/Perm kit and left at room temperature for 15 minutes. The samples were spun down at 400 g for 5 minutes and the supernatant was disposed. The samples were once again washed with PBS and spun down at 300 g for 5 minutes. The cells were finally resuspended in 400 ul/sample FACS buffer (PBS+2 mM EDTA+0.5% w/v BSA) for flow analysis. Samples were stored in the fridge prior to flow analysis and run within 24 hrs of fixation.
12 μl of a nanoparticle formulation was aliquoted into a sterile 0.5 ml polypropylene tube. 4 μl of a 0.3 mg/ml, 0.6 mg/ml or 1.8 mg/ml solution of (Ac-EEEE)2[…][(S-S)-α-D-Thiomannose] (for a mRNA:coating mass ratio of 1:0.5, 1:1 or 1:3, respectively) was mixed by rapidly pipetting up and down 10-15 times, and allowed to incubate for 5 minutes.
Macrophages, and in particular M2-phenotype macrophages, are known to have enriched surface expression of the receptor CD206, the ligand for which is mannose.

Another data set concerns myeloid cells in tumour. The experiment in a line: In vivo uptake of Alexafluor488 tagged mRNA by cells in tumour of MC38 bearing mice. Details: species or system C57Bl/6 mice. The note with it: GSCG1,2-RL, 3-LR N:P=0.16:1, DOTMA:DOPE 10:1, coat 3 eq; 2.25 mg/kg IV, 4 hours; FIG. 39. The text has this:
Compensation was adjusted using the Attune compensation beads.

Another data set relates to lung cells. The note with it: GSCG1,2-RL, 3-LR N:P=0.16:1, DOTMA:DOPE 10:1, coat 3 eq; 2.25 mg/kg IV, 4 hours; FIG. 13.
The subject of another data set is lung and spleen. Briefly: Luciferase mRNA expression in mouse tissues after intravenous administration (bioluminescence). The class given is in vivo, Balb/c mice. As to conditions: 6 hours, DOTMA/DOPE w/w=23:1 to mRNA, dendrimers NP=0.6:1, FIG. 11. As to the method:
All animal procedures were conducted following the Animal Research Reporting of In Vivo Experiments and approved by the UK Home Office for the conduct of regulated procedures under license. For the data underlying FIG. 11, Balb/c mice aged 4 weeks were purchased from Jackon's Laboratory and left to acclimate in the new housing environment for 1-week upon their arrival. All mice were weighed and warmed for 15 min at 37 C in a heating chamber. The formulations were delivered intravenously (5 mL/kg) via the tail vein using 30 G insulin syringes (BD biosciences).
All mice were imaged 6 hours post injection. BLI was performed using an IVIS Lumina II (Perkin Elmer) imaging system. Mice were administered D-luciferin (GoldBio) at a dose of 10 uL/g. Mice were anaesthetised in a chamber with 2.5% isoflurane and then placed on a heated imaging platform while being maintained on 2.5% isoflurane. For the data underlying FIG. 11, mice were imaged 10 min post administration of D-luciferin with an exposure time set at 45 sec to ensure the signal acquired was within an effective detection range (binning medium). Bioluminescence signal was quantified by measuring photon flux (photons/s) using the Living Image software (Perkin Elmer). […] The organs were placed in the centre of imaging platform (Lumina II system) and signal was measured using the acquisition settings detailed above. […]

The nature of data set [1]: Dynamic light scattering: hydrodynamic size and polydispersity index (PDI) of nanoparticles. The class given is physicochemical. As to conditions: peptide dendrimer, lipid and mRNA complexes; N:P 8:1, DOTMA/DOPE w/w 10:1 to mRNA. On the procedure: (§1) The hydrodynamic size was measured using the dynamic light scattering (DLS) technique. DLS is a very sensitive, non-invasive method to measure size and size distribution of nanoparticles in a liquid. […] Analysing these intensity fluctuations allows us to calculate the velocity of the Brownian motion. The size of the nanoparticles can be determined by using the Stokes-Einstein relationship. With the latest technology, it can measure nanoparticles smaller than 1 nm.
PDI is used to estimate the average uniformity of a particle solution, The method of cumulants is a standard technique for analysing DLS data on sample polydispersity. PDI is a number calculated from a 2 parameter fit to the correlation data (the cumulants analysis). The cumulants analysis is used to evaluate the autocorrelation function generated by a DLS experiment. The calculation is defined in ISO 13321 and ISO 22412. PDI values greater than 0.7 indicate that the sample has a very broad size distribution and is not suitable for the DLS technique. The calculations for these parameters are defined in the ISO standard document 13321:1996 E and ISO 22412:2008.
as §1, with “Size, zeta potential and polydispersity index (PDI) measurement: The hydrodynamic” for “The hydrodynamic”, “scattering (DLS) technique using the Zetasizer Advance Series—Pro (Malvern Panalytical Ltd, Malvern, UK) according to the manufacturer's instructions. DLS is” for “scattering (DLS) technique. DLS is”
The data obtained with DLS measurements can also be used to calculate the PDI of particle in solution. PDI is used to estimate the average uniformity of a particle solution. The method of cumulants is a standard technique for analysing DLS data on sample polydispersity. PDI is a number calculated from a 2 parameter fit to the correlation data (the cumulants analysis). The cumulants analysis is used to evaluate the autocorrelation function generated by a DLS experiment. The calculation is defined in ISO 13321 and ISO 22412. PDI values greater than 0.7 indicate that the sample has a very broad size distribution and is not suitable for the DLS technique. The calculations for these parameters are defined in the ISO standard document 13321:1996 E and ISO 22412:2008.
To measure the size and PDI, the samples were diluted 16× in 25 mM HEPES buffer (5 μl sample+75 μl buffer). Parameters: reference material: polystyrene latex, dispersant: water, 25° C. The PDI measurements were measured in nanoparticles comprising a dendrimer:nucleic acid NP ratio of 8:1.

Experimental for lung cells: Six week old, female C57Bl/6 mice were supplied from Envigo UK. The mice were acclimatized in the animal facility for at least 7 days prior to use. […] The mice were randomised into 4 groups of n=3 when the tumours reached 0.15 cm3 (calliper measurements) and were dosed IV at 2.25 mg/kg or 3 mg/kg.
Four hours post dosing of the formulations, the animals were culled, and tissues were harvested. Terminal blood was collected in EDTA tubes and treated with Red Blood Cell Lysing Buffer HYBRI-MAX (Merck) prior to antibody staining. Spleens were dissociated by pushing through a 70 uM cell strainer using a syringe plunge. The cell suspension was then treated with Red Blood Cell Lysing Buffer HYBRI-MAX (Merck) prior to antibody staining. Lung and tumour samples were cut into small pieces and were enzymatically digested using the Lung and Tumor Dissociation Kit (mouse) and the gentleMACS™ Octo Dissociator with Heaters (Miltenyi) following the manufacturer's instructions.
The final cell suspensions were blocked with mouse Fc block prior to antibody staining. Cells were incubated with the antibody master mix at 4 C for 20 min and then they were fixed using 4% PFA for 30 min RT. They were analysed using the Attune NxT flow cytometer (Thermo Fisher) within 24 hours of fixing and data was analysed using the FlowJo_v10.8.1 software. Compensation was adjusted using the Attune compensation beads.

Regarding “(Ac-EEEE)2KGSGGSGGSC[(S-S)-α-D-Thiomannose] [Mannose-G1-EEEE]”, the “increase of transfection efficiency compared to a non-coated nanoparticle” value with mouse macrophages is on record as approximately 10%. Further, in the data set with myeloid cells in tumour, the “uptake by CD206+ M2 macrophage cells in tumour versus non-coated nanocarrier and LPX-mRNA” value is “more effectively”. For the same substance, in the data set with lung cells, the “uptake by CD206+ cells in the lung versus non-coated nanocarrier and LPX-mRNA” value was “more effectively”; the “uptake in the lung cells versus non-coated nanocarrier and LPX-mRNA” value is given as “higher uptake in the lung cells”.

For (LRLR)2KGSC-NH2 [GSCG1-LRLR], the “delivery of luciferase mRNA cargo to lung and spleen (bioluminescence)” value in the data set with lung and spleen is on record as “further improved”. The “Polydispersity Index (PDI)” value in data set [1] is reported as 0.581.
